From patent publication US20230416239A1, “COMPOUNDS AND METHODS FOR TREATING A CYTOKINE-MEDIATED DISEASE” (CONSERVATOIRE NATIONAL DES ARTS ET MÉTIERS, priority 2020, published 2023)

Tests used:
IL-13 = IL-13 (Homo sapiens, UniProt P35225); assay: Immunoassay binding test, IL-13; conditions: for IC50: IL-13 400 ng/ml, receptor 100 ng/ml, read-out: BINDING IL13 IC50
Procedure, shortened: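 Receptor-coated plates; compounds (100 to 0.78 μM final) preincubated 2 h at 37° C with fixed cytokine, then bound to receptor overnight at 4° C. Bound cytokine detected with biotinylated anti-cytokine antibody and avidin-HRP, OD 450 nm.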

TNFa/TNFRI interaction = TNFa/TNFRI interaction (Homo sapiens, UniProt P01375); assay: TNFa/TNFRI interaction displacement test; type: binding; conditions: for Displacement (%): compounds at 50 μM, human TNFRI 100 ng/ml; for Displacement EC50 TNFa in presence of compound: Difference: Compound EC50 minus SPD304 EC50;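 as to Displacement EC50 TNFa in presence of compound: Difference: SPD304 reference at 20 µM final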
Chain of TNFa/TNFRI interaction (P01375 77-233 limits assumed): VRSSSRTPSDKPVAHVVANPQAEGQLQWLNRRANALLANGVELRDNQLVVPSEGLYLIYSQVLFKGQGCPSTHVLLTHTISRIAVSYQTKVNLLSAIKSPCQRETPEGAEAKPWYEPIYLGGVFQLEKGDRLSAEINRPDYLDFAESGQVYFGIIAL
Procedure, shortened: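 Plates coated overnight at 4° C with human TNFRI (100 ng/ml) and blocked with 2% BSA, then test mixtures were incubated overnight at 4° C. Bound cytokine detected with biotinylated anti-cytokine antibody (2 h, 37° C) and avidin-HRP, read as OD at 450 nm.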

TNFα = TNFα (Homo sapiens, UniProt P01375); assay: Immunoassay binding test, TNFa; conditions: compounds 100 to 0.78 μM; TNFα 10 ng/ml, receptor 100 ng/ml; read-out: BINDING TNF IC50
Chain of TNFα (P01375 77-233 limits assumed, species assumed): as the sequence (P01375 77-233 limits assumed) above
Procedure, shortened: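 ELISA-type binding test: receptor-coated plates blocked with 2% BSA, then cytokine (six-point dilution series) preincubated 2 h at 37 °C and bound overnight at 4 °C. Detection used biotinylated anti-cytokine antibody and avidin-HRP, read as OD at 450 nm. For IL-6, IL-6Ra was present at 200 ng/ml final.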

IL-4 = target: T1, IL-4 (Homo sapiens, UniProt P05112); assay: Immunoassay binding test, IL-4; conditions: for IC50: IL-4 400 ng/ml, receptor 100 ng/ml, read-out: BINDING IL4 IC50
T1 sequence (P05112 25-153): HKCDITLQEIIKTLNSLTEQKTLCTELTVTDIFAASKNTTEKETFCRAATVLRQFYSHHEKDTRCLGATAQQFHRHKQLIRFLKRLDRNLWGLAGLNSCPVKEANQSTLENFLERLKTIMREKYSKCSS
Procedure, shortened: (§1)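 Detection used OD at 450 nm after biotinylated anti-cytokine antibody and avidin-HRP were applied to receptor-coated wells. Those wells had received, overnight at 4 °C, cytokine preincubated 2 h at 37 °C with compound at final 100 to 0.78 μM. IL-6 mixtures further contained IL-6Ra at 200 ng/ml final.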

IL-6 = IL-6 (Homo sapiens, UniProt P05231); assay: Immunoassay binding test, IL-6 (gp130 receptor, IL-6Ra present); conditions: IL-6Ra 200 ng/ml
Chain of IL-6 (P05231 30-212, species assumed): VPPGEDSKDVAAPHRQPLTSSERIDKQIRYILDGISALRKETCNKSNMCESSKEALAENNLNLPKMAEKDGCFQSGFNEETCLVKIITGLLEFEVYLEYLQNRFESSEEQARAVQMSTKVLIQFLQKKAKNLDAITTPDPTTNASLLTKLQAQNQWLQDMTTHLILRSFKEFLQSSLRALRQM
Procedure, shortened: as §1

Chain of IL-13 (P35225 25-146, species assumed): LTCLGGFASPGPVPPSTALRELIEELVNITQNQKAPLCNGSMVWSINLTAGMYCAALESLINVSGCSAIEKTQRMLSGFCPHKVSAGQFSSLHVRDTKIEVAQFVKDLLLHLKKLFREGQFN

CN(CCCCN(Cc1cccc(F)n1)Cc1cn(S(=O)(=O)c2ccccc2)c2ccccc12)C1CCCCC1 [Compound 51, N1-cyclohexyl-N4-((6-fluoropyridin-2-yl)methyl)-N1-methyl-N4-((1-(phenylsulfonyl)-1H-indol-3-yl)methyl)butane-1,4-diamine]
BINDING IL13 % Neutra at 100 μM (IL-13): 89.4%
IC50 (IL-13): 25.9 µM
Displacement (%) (TNFa/TNFRI interaction): 153%
IC50 (TNFα): 7.9 µM
BINDING IL4 % Neutra at 100 μM (IL-4): 87.2%
IC50 (IL-4): 6.7 µM
BINDING IL6 % Neutra at 100 μM (IL-6): 0%

O=S(=O)(c1ccccc1)n1cc(CN(CCCCNC2CCCCCCC2)Cc2cccnc2F)c2ccccc21 [Compound 75, N′-cyclooctyl-N^4-((2-fluoropyridin-3-yl)methyl)-N^4-((1-(phenylsulfonyl)-1H-indol-3-yl)methyl)butane-1,4-diamine]
BINDING IL13 % Neutra at 100 μM (IL-13): 85.8%
IC50 (IL-13): > 50 µM
Displacement (%) (TNFa/TNFRI interaction): 147%
IC50 (TNFα): 11.2 µM
BINDING IL4 % Neutra at 100 μM (IL-4): 92.0%
IC50 (IL-4): 8.5 µM
BINDING IL6 % Neutra at 100 μM (IL-6): 0%

CC(=O)NCCCCN(Cc1cccnc1F)Cc1cn(S(=O)(=O)c2ccccc2)c2ccccc12 [Compound 85]
BINDING IL13 % Neutra at 100 μM (IL-13): 0%
Displacement (%) (TNFa/TNFRI interaction): 45%
IC50 (TNFα): 44.3 µM
BINDING IL4 % Neutra at 100 μM (IL-4): 36.6%
IC50 (IL-4): > 100 µM
BINDING IL6 % Neutra at 100 μM (IL-6): 3%

O=S(=O)(c1ccccc1)n1cc(CN(Cc2ccncc2)CC2CCCN(C3CCCCC3)C2)c2ccccc21 (stereo not shown) [Compound 5]
BINDING IL13 % Neutra at 100 μM (IL-13): 84.9%
IC50 (IL-13): > 50 µM
Displacement EC50 TNFa in presence of compound: Difference (TNFa/TNFRI interaction): 8.3 ng/mL
Displacement (%) (TNFa/TNFRI interaction): 194%
IC50 (TNFα): 11.1 µM
BINDING IL4 % Neutra at 100 μM (IL-4): 96.9%
IC50 (IL-4): 7.8 µM
BINDING IL6 % Neutra at 100 μM (IL-6): 2.1%

CCCCN(CCOCCN(Cc1cccnc1F)Cc1cn(S(=O)(=O)c2ccccc2)c2ccccc12)C1CCCCC1 [Compound 102]
BINDING IL13 % Neutra at 100 μM (IL-13): 39.2%
IC50 (IL-13): > 25 µM
Displacement (%) (TNFa/TNFRI interaction): 138%
IC50 (TNFα): 7.2 µM
BINDING IL4 % Neutra at 100 μM (IL-4): 83.2%
IC50 (IL-4): 6.3 µM
BINDING IL6 % Neutra at 100 μM (IL-6): 0%

O=S(=O)(c1ccccc1)n1cc(CN(CCCNC2CCCCC2)Cc2cccnc2)c2ccccc21 [Compound 7]
BINDING IL13 % Neutra at 100 μM (IL-13): 86.2%
IC50 (IL-13): > 50 µM
Displacement EC50 TNFa in presence of compound: Difference (TNFa/TNFRI interaction): 7.8 ng/mL
Displacement (%) (TNFa/TNFRI interaction): 146%
IC50 (TNFα): 9.4 µM
BINDING IL4 % Neutra at 100 μM (IL-4): 97.3%
IC50 (IL-4): 8.5 µM
BINDING IL6 % Neutra at 100 μM (IL-6): 3.3%

Fc1ncccc1CN(Cc1cn(-c2cccc(C(F)(F)F)c2)c2ccccc12)CC1CCCN(C2CCCCC2)C1 (stereo not shown) [Compound 42]
BINDING IL13 % Neutra at 100 μM (IL-13): 86.3%
IC50 (IL-13): 21.3 µM
Displacement EC50 TNFa in presence of compound: Difference (TNFa/TNFRI interaction): 8.3 ng/mL
Displacement (%) (TNFa/TNFRI interaction): 177%
IC50 (TNFα): 15.6 µM
BINDING IL4 % Neutra at 100 μM (IL-4): 94.4%
IC50 (IL-4): 6.4 µM
BINDING IL6 % Neutra at 100 μM (IL-6): 0%

CN(CCCN(Cc1cccnc1)Cc1cn(S(=O)(=O)c2ccccc2)c2ccccc12)C1CCCCC1 [Compound 9]
BINDING IL13 % Neutra at 100 μM (IL-13): 59.7%
IC50 (IL-13): > 50 µM
Displacement EC50 TNFa in presence of compound: Difference (TNFa/TNFRI interaction): 4.3 ng/mL
Displacement (%) (TNFa/TNFRI interaction): 175%
IC50 (TNFα): 7.3 µM
BINDING IL4 % Neutra at 100 μM (IL-4): 94.4%
IC50 (IL-4): 8 µM
BINDING IL6 % Neutra at 100 μM (IL-6): 21%

CN(CCN(Cc1cccnc1)Cc1cn(-c2cccc(C(F)(F)F)c2)c2ccccc12)C1CCCCC1 [Compound 32]
BINDING IL13 % Neutra at 100 μM (IL-13): 76.3%
IC50 (IL-13): > 50 µM
Displacement (%) (TNFa/TNFRI interaction): 125%
IC50 (TNFα): 15.9 µM
BINDING IL4 % Neutra at 100 μM (IL-4): 97.7%
IC50 (IL-4): 3.9 µM
BINDING IL6 % Neutra at 100 μM (IL-6): 15.5%

CCCN(CCOCCN(Cc1cccnc1F)Cc1cn(S(=O)(=O)c2ccccc2)c2ccccc12)C1CCCCC1 [Compound 97, N-(2-(2-(((2-fluoropyridin-3-yl)methyl) ((1-(phenylsulfonyl)-1H-indol-3-yl)methyl)amino)ethoxy)ethyl)-N-propylcyclohexanamine]
BINDING IL13 % Neutra at 100 μM (IL-13): 73.9%
IC50 (IL-13): > 50 µM
Displacement (%) (TNFa/TNFRI interaction): 153%
IC50 (TNFα): 10.5 µM
BINDING IL4 % Neutra at 100 μM (IL-4): 94.6%
IC50 (IL-4): 6.6 µM
BINDING IL6 % Neutra at 100 μM (IL-6): 0%

FC(F)(F)c1cccc(-n2cc(CN(CCCNC3CCCCC3)Cc3cccnc3)c3ccccc32)c1 [Compound 10]
BINDING IL13 % Neutra at 100 μM (IL-13): 91.1%
IC50 (IL-13): > 50 µM
Displacement (%) (TNFa/TNFRI interaction): 121%
IC50 (TNFα): 23 µM
BINDING IL4 % Neutra at 100 μM (IL-4): 96.4%
IC50 (IL-4): 5.5 µM
BINDING IL6 % Neutra at 100 μM (IL-6): 10.7%

CN(CCCCN(Cc1cccnc1F)Cc1cn(C)c2ccccc12)C1CCCCC1 [Compound 95]
BINDING IL13 % Neutra at 100 μM (IL-13): 0%
Displacement (%) (TNFa/TNFRI interaction): 16%
IC50 (TNFα): > 50 µM
BINDING IL4 % Neutra at 100 μM (IL-4): 75.3%
IC50 (IL-4): > 50 µM
BINDING IL6 % Neutra at 100 μM (IL-6): 0%

FC(F)(F)c1cccc(-n2cc(CN(Cc3cccnc3)CC3CCCN(C4CCCCC4)C3)c3ccccc32)c1 (stereo not shown) [Compound 4]
BINDING IL13 % Neutra at 100 μM (IL-13): 92.2%
IC50 (IL-13): 9.9 µM
Displacement EC50 TNFa in presence of compound: Difference (TNFa/TNFRI interaction): Difference = 9 ng/ml
Displacement (%) (TNFa/TNFRI interaction): 221%
IC50 (TNFα): 21.3 µM
BINDING IL4 % Neutra at 100 μM (IL-4): 98.3%
IC50 (IL-4): 4 µM
BINDING IL6 % Neutra at 100 μM (IL-6): 5.2%

CCCCN(CCOCCN(Cc1cccnc1F)Cc1cn(S(=O)(=O)c2ccccc2)c2ccccc12)C1CCCC1 [Compound 109, N-butyl-N-(2-(2-(((2-fluoropyridin-3-yl)methyl)((1-(phenylsulfonyl)-1H-indol-3-yl)methyl)amino)ethoxy)ethyl)cyclopentanamine]
BINDING IL13 % Neutra at 100 μM (IL-13): 7.8%
Displacement (%) (TNFa/TNFRI interaction): 207%
IC50 (TNFα): 11.5 µM
BINDING IL4 % Neutra at 100 μM (IL-4): 86.3%
IC50 (IL-4): 9.6 µM
BINDING IL6 % Neutra at 100 μM (IL-6): 1%

O=[N+]([O-])c1ccccc1S(=O)(=O)NCCCN(Cc1cccnc1)Cc1cn(S(=O)(=O)c2ccccc2)c2ccccc12 [Compound 60]
BINDING IL13 % Neutra at 100 μM (IL-13): 0%
Displacement (%) (TNFa/TNFRI interaction): 2%
IC50 (TNFα): > 50 µM
BINDING IL4 % Neutra at 100 μM (IL-4): 36.4%
BINDING IL6 % Neutra at 100 μM (IL-6): 0%

CCn1cc(CN(CCCCN(C)C2CCCCC2)Cc2cccnc2F)c2ccccc21 [Compound 96]
BINDING IL13 % Neutra at 100 μM (IL-13): 0%
Displacement (%) (TNFa/TNFRI interaction): 26%
IC50 (TNFα): > 50 µM
BINDING IL4 % Neutra at 100 μM (IL-4): 74.5%
IC50 (IL-4): 62.3 µM
BINDING IL6 % Neutra at 100 μM (IL-6): 1%

O=S(=O)(c1ccccc1)n1cc(CN(CCOCCNC2CCCCC2)Cc2cccnc2F)c2ccccc21 [Compound 64, N-(2-(2-(((2-fluoropyridin-3-yl)methyl) ((1-(phenylsulfonyl)-1H-indol-3-yl)methyl)amino)ethoxy)ethyl)cyclohexanaminee]
BINDING IL13 % Neutra at 100 μM (IL-13): 83.9%
IC50 (IL-13): 28.2 µM
Displacement (%) (TNFa/TNFRI interaction): 197%
IC50 (TNFα): 8.9 µM
BINDING IL4 % Neutra at 100 μM (IL-4): 90.7%
IC50 (IL-4): 5.1 µM
BINDING IL6 % Neutra at 100 μM (IL-6): 0%
